Assay results as given in patent US7161032B2, “Sulfonamide derivatives, insecticides for agricultural and horticultural use, and usage thereof” (Nihon Nohyaku Co., Ltd., priority 2002, dated 2007).

Assays:
Type in all cases: in vivo
[1] = test system: Common Cutworm (Spodoptera litura); experiment: Insecticidal effect on common cutworm (Test Example 2): cabbage leaf piece immersed in 50 ppm liquid chemical; conditions: common cutworm (Spodoptera litura) second-instar larvae, 8 days after inoculation, 25° C.
Description: A piece of cabbage leaf (cultivar: Shikidori) was immersed for about 30 seconds in a liquid chemical prepared by diluting a preparation containing each compound listed in Table 1 or 2 as an active ingredient to adjust the concentration to 50 ppm. After air-dryness, it was placed in a plastic Petri dish with a diameter of 9 cm and inoculated with second-instar larvae of common cutworm, after which the dish was closed and then allowed to stand in a room thermostated at 25° C. Eight days after the inoculation, the dead and alive were counted. The mortality was calculated according to the following equation and the insecticidal effect was judged according to the criterion shown in Test Example 1. The test was carried out with triplicate groups of 10 insects. [formula]

[2] = test system: Smaller Tea Tortrix (Adoxophyes sp.); experiment: Insecticidal effect on smaller tea tortrix (Test Example 3): tea leaves immersed in 50 ppm liquid chemical; conditions: smaller tea tortrix (Adoxophyes sp.) larvae, 8 days after inoculation, 25° C., humidity 70%
Description: Tea leaves were immersed for about 30 seconds in a liquid chemical prepared by diluting a preparation containing each compound listed in Table 1 or 2 as an active ingredient to adjust the concentration to 50 ppm. After air-dryness, the tea leaves were placed in a plastic Petri dish with a diameter of 9 cm and inoculated with larvae of smaller tea tortrix, after which the dish was allowed to stand in a room thermostated at 25° C. and having a humidity of 70%. Eight days after the inoculation, the dead and alive were counted and the insecticidal effect was judged according to the criterion shown in Test Example 1. The test was carried out with triplicate groups of 10 insects.

[3] = test system: Diamond Back Moth (Plutella xylostella); experiment: Insecticidal effect on diamond back moth (Test Example 1): egg-bearing Chinese cabbage seedling immersed in 50 ppm liquid chemical
Description: Adult diamond back moths were released and allowed to oviposit on a Chinese cabbage seedling. Two days after the release, the seedling having the eggs deposited thereon was immersed for about 30 seconds in a liquid chemical prepared by diluting a preparation containing each compound listed in Table 1 or 2 as an active ingredient to adjust the concentration to 50 ppm. After air-dryness, it was allowed to stand in a room thermostated at 25° C. Six days after the immersion, the hatched insects were counted. The mortality was calculated according to the following equation and the insecticidal effect was judged according to the criterion shown below. The test was carried out with triplicate groups of 10 insects. [formula]

Compound | Insecticidal effect (mortality grade), Test Example 2 [1] | Insecticidal effect (mortality grade), Test Example 3 [2] | Insecticidal effect (mortality grade), Test Example 1 [3]
Cc1cc(C(F)(F)C(F)(F)F)ccc1NC(=O)c1cccc(I)c1C(=O)NC(C)(C)CS(=O)(=O)NCCS(C)(=O)=O [1-306] | A (Mortality 100%) | A (Mortality 100%) | A (Mortality 100%)
Cc1cc(C(F)(C(F)(F)F)C(F)(F)F)ccc1NC(=O)c1cccc(I)c1C(=O)NC(C)CS(=O)(=O)N(C)Cc1ccccc1 (stereo not shown) [1-42] | A (Mortality 100%) | A (Mortality 100%) | A (Mortality 100%)
Cc1cc(C(F)(C(F)(F)F)C(F)(F)F)ccc1NC(=O)c1cccc(Br)c1C(=O)NC(C)CS(=O)(=O)NC(C)C (stereo not shown) [1-216] | A (Mortality 100%) | A (Mortality 100%) | A (Mortality 100%)
Cc1cc(C(F)(C(F)(F)F)C(F)(F)F)ccc1NC(=O)c1cccc(I)c1C(=O)NC(C)CS(=O)(=O)NCc1ccccc1 (stereo not shown) [1-22] | A (Mortality 100%) | A (Mortality 100%) | A (Mortality 100%)
Cc1cc(C(F)(C(F)(F)F)C(F)(F)F)ccc1NC(=O)c1cccc(Br)c1C(=O)NC(C)CS(=O)(=O)N(C)C (stereo not shown) [1-213] | A (Mortality 100%) | A (Mortality 100%) | A (Mortality 100%)
COc1ccc(CNS(=O)(=O)CC(C)NC(=O)c2c(I)cccc2C(=O)Nc2ccc(C(F)(C(F)(F)F)C(F)(F)F)cc2C)cc1 (stereo not shown) [1-35] | A (Mortality 100%) | A (Mortality 100%) | A (Mortality 100%)
Cc1cc(C(F)(C(F)(F)F)C(F)(F)F)ccc1NC(=O)c1cccc(I)c1C(=O)NC(C)CS(=O)(=O)N1CCSCC1 (stereo not shown) [1-55] | A (Mortality 100%) | A (Mortality 100%) | A (Mortality 100%)
CCN(CC)S(=O)(=O)CC(C)NC(=O)c1c(Cl)cccc1C(=O)Nc1ccc(C(F)(C(F)(F)F)C(F)(F)F)cc1C (stereo not shown) [1-211] | A (Mortality 100%) | A (Mortality 100%) | A (Mortality 100%)
Cc1cc(C(F)(F)C(F)(F)F)ccc1NC(=O)c1cccc(I)c1C(=O)NC(C)(C)CS(=O)(=O)NCCSc1ccccc1 [1-310] | A (Mortality 100%) | A (Mortality 100%) | A (Mortality 100%)
CCS(=O)(=O)CCNS(=O)(=O)CC(C)(C)NC(=O)c1c(I)cccc1C(=O)Nc1ccc(C(F)(C(F)(F)F)C(F)(F)F)cc1C [1-86] | A (Mortality 100%) | A (Mortality 100%) | A (Mortality 100%)
CCN(CC)S(=O)(=O)CC(C)NC(=O)c1c(I)cccc1C(=O)Nc1ccc(Cl)c(Cl)c1Cl (stereo not shown) [1-267] | C (Mortality 89–80%) | E (Mortality less than 50%) | A (Mortality 100%)
COCCNS(=O)(=O)CC(C)NC(=O)c1c(I)cccc1C(=O)Nc1ccc(C(F)(C(F)(F)F)C(F)(F)F)cc1C (stereo not shown) [1-73] | A (Mortality 100%) | A (Mortality 100%) | A (Mortality 100%)
CCNS(=O)(=O)CC(C)NC(=O)c1c(I)cccc1C(=O)Nc1ccc(Cl)c(Cl)c1Cl (stereo not shown) [1-266] | C (Mortality 89–80%) | E (Mortality less than 50%) | A (Mortality 100%)
CCSCCNS(=O)(=O)CC(C)(C)NC(=O)c1c(I)cccc1C(=O)Nc1ccc(C(F)(F)C(F)(F)F)cc1C [1-307] | A (Mortality 100%) | A (Mortality 100%) | A (Mortality 100%)
CSCCNS(=O)(=O)CC(C)(C)NC(=O)c1c(I)cccc1C(=O)Nc1ccc(C(F)(F)C(F)(F)F)cc1C [1-304] | A (Mortality 100%) | A (Mortality 100%) | A (Mortality 100%)
CCN(Cc1ccccc1)S(=O)(=O)CC(C)NC(=O)c1c(I)cccc1C(=O)Nc1ccc(C(F)(C(F)(F)F)C(F)(F)F)cc1C (stereo not shown) [1-43] | A (Mortality 100%) | A (Mortality 100%) | A (Mortality 100%)
Cc1cc(C(F)(C(F)(F)F)C(F)(F)F)ccc1NC(=O)c1cccc(I)c1C(=O)NC(C)CS(=O)(=O)N1CCC(=O)CC1 (stereo not shown) [1-67] | E (Mortality less than 50%) | E (Mortality less than 50%) | A (Mortality 100%)
CSCC(C)NS(=O)(=O)CC(C)NC(=O)c1c(I)cccc1C(=O)Nc1ccc(C(F)(C(F)(F)F)C(F)(F)F)cc1C (stereo not shown) [1-91] | A (Mortality 100%) | A (Mortality 100%) | A (Mortality 100%)
CCCCNS(=O)(=O)CC(C)(C)NC(=O)c1c(I)cccc1C(=O)Nc1ccc(C(F)(C(F)(F)F)C(F)(F)F)cc1C [1-180] | C (Mortality 89–80%) | A (Mortality 100%) | A (Mortality 100%)
CCN(CC)C(=O)CNS(=O)(=O)CC(C)NC(=O)c1c(I)cccc1C(=O)Nc1ccc(C(F)(C(F)(F)F)C(F)(F)F)cc1C (stereo not shown) [1-105] | A (Mortality 100%) | E (Mortality less than 50%) | A (Mortality 100%)
CCNS(=O)(=O)CC(C)NC(=O)c1ccccc1C(=O)Nc1ccc(C(F)(C(F)(F)F)C(F)(F)F)cc1C (stereo not shown) [1-207] | A (Mortality 100%) | E (Mortality less than 50%) | A (Mortality 100%)
COC(=O)N1CCN(S(=O)(=O)CC(C)NC(=O)c2c(I)cccc2C(=O)Nc2ccc(C(F)(C(F)(F)F)C(F)(F)F)cc2C)CC1 (stereo not shown) [1-66] | A (Mortality 100%) | A (Mortality 100%) | A (Mortality 100%)
COc1cccc(CNS(=O)(=O)CC(C)NC(=O)c2c(I)cccc2C(=O)Nc2ccc(C(F)(C(F)(F)F)C(F)(F)F)cc2C)c1 (stereo not shown) [1-29] | A (Mortality 100%) | A (Mortality 100%) | A (Mortality 100%)
Cc1cc(C(F)(C(F)(F)F)C(F)(F)F)ccc1NC(=O)c1cccc(I)c1C(=O)NC(C)CS(=O)(=O)NC(C)c1ccccc1 (stereo not shown) [1-44] | A (Mortality 100%) | A (Mortality 100%) | A (Mortality 100%)
Cc1cc(C(C(F)(F)F)C(F)(F)F)ccc1NC(=O)c1cccc(I)c1C(=O)NC(C)CS(N)(=O)=O (stereo not shown) [1-342] | A (Mortality 100%) | A (Mortality 100%) | A (Mortality 100%)
CSC[C@H](C)NS(=O)(=O)C[C@H](C)NC(=O)c1c(I)cccc1C(=O)Nc1ccc(C(F)(C(F)(F)F)C(F)(F)F)cc1C [1-147] | A (Mortality 100%) | A (Mortality 100%) | A (Mortality 100%)
Cc1cc(C(F)(C(F)(F)F)C(F)(F)F)ccc1NC(=O)c1cccc(I)c1C(=O)NC(C)CS(=O)(=O)NCCO (stereo not shown) [1-72] | A (Mortality 100%) | A (Mortality 100%) | A (Mortality 100%)
CCNS(=O)(=O)CC(C)NC(=O)c1c(I)cccc1C(=O)Nc1ccc(C(F)(C(F)(F)F)C(F)(F)F)cc1C (stereo not shown) [1-142] | – | A (Mortality 100%) | –
